Measurements published in the supplement of paper PMC10307832.

How the values were obtained:
Experiment in all cases: relative viability (nuclei count vs DMSO), 5 days (fraction); higher = more cells survive
Bleomycin + Palbociclib = compound: CC1=C(N=C(N=C1N)[C@H](CC(=O)N)NC[C@@H](C(=O)N)N)C(=O)N[C@@H]([C@H](C2=CN=CN2)OC3C(C(C(C(O3)CO)O)O)OC4C(C(C(C(O4)CO)O)OC(=O)N)O)C(=O)N[C@H](C)[C@H]([C@H](C)C(=O)N[C@@H]([C@@H](C)O)C(=O)NCCC5=NC(=CS5)C6=NC(=CS6)C(=O)NCCC[S+](C)C)O [Bleomycin] + CC(=O)c1c(C)c2cnc(Nc3ccc(N4CCNCC4)cn3)nc2n(C2CCCC2)c1=O [Palbociclib] (partner 0.5 µM); details: main component drawn
Outline: (§1)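 Lung cancer cell lines in 1536-well plates were dosed by pin tool the day after seeding, either with one drug alone or with a fixed anchor-drug dose plus five library-drug doses (not always all listed) in √10 steps. After 5 days, cells were fixed and their nuclei stained in one step (final 0.05% Triton X-100, 1% formaldehyde, 1 ug/ml Hoechst), then counted on 4× images. Relative viability is the nuclei count in treated wells divided by that in vehicle wells. Values are medians of duplicate plates.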

Bleomycin + AZD7762 = compound: CC1=C(N=C(N=C1N)[C@H](CC(=O)N)NC[C@@H](C(=O)N)N)C(=O)N[C@@H]([C@H](C2=CN=CN2)OC3C(C(C(C(O3)CO)O)O)OC4C(C(C(C(O4)CO)O)OC(=O)N)O)C(=O)N[C@H](C)[C@H]([C@H](C)C(=O)N[C@@H]([C@@H](C)O)C(=O)NCCC5=NC(=CS5)C6=NC(=CS6)C(=O)NCCC[S+](C)C)O [Bleomycin] + NC(=O)Nc1cc(-c2cccc(F)c2)sc1C(=O)N[C@H]1CCCNC1 [AZD7762] (partner 0.2 µM); details: main component drawn
Outline: as §1

Etoposide + Crizotinib = compound: COc1cc([C@@H]2c3cc4c(cc3[C@@H](O[C@@H]3O[C@@H]5CO[C@@H](C)O[C@H]5[C@H](O)[C@H]3O)[C@H]3COC(=O)[C@H]23)OCO4)cc(OC)c1O [Etoposide] + C[C@@H](Oc1cc(-c2cnn(C3CCNCC3)c2)cnc1N)c1c(Cl)ccc(F)c1Cl [Crizotinib] (partner 1 µM)
Outline: as §1

Etoposide + Decitabine = compound: COc1cc([C@@H]2c3cc4c(cc3[C@@H](O[C@@H]3O[C@@H]5CO[C@@H](C)O[C@H]5[C@H](O)[C@H]3O)[C@H]3COC(=O)[C@H]23)OCO4)cc(OC)c1O [Etoposide] + Nc1ncn([C@H]2C[C@H](O)[C@@H](CO)O2)c(=O)n1 [Decitabine] (partner 2 µM)
Outline: as §1

Row | Cell Line | relative viability (Bleomycin + Palbociclib; first compound 0.01 µM) | relative viability (Bleomycin + Palbociclib; first compound 0.03162 µM) | relative viability (Bleomycin + Palbociclib; first compound 0.1 µM) | relative viability (Bleomycin + Palbociclib; first compound 0.3162 µM) | relative viability (Bleomycin + Palbociclib; first compound 1 µM) | relative viability (Bleomycin + AZD7762; first compound 0.01 µM) | relative viability (Bleomycin + AZD7762; first compound 0.03162 µM) | relative viability (Bleomycin + AZD7762; first compound 0.1 µM) | relative viability (Bleomycin + AZD7762; first compound 0.3162 µM) | relative viability (Bleomycin + AZD7762; first compound 1 µM) | relative viability (Etoposide + Crizotinib; first compound 0.01 µM) | relative viability (Etoposide + Crizotinib; first compound 0.03162 µM) | relative viability (Etoposide + Crizotinib; first compound 0.1 µM) | relative viability (Etoposide + Crizotinib; first compound 0.3162 µM) | relative viability (Etoposide + Crizotinib; first compound 1 µM) | relative viability (Etoposide + Decitabine; first compound 0.01 µM) | relative viability (Etoposide + Decitabine; first compound 0.03162 µM) | relative viability (Etoposide + Decitabine; first compound 0.1 µM) | relative viability (Etoposide + Decitabine; first compound 0.3162 µM) | relative viability (Etoposide + Decitabine; first compound 1 µM)
1 | NCI-H1755 | 0.433 | 0.435 | 0.457 | 0.408 | 0.428 | 0.41 | 0.495 | 0.36 | 0.353 | 0.311 | 0.846 | 0.839 | 0.931 | 0.716 | 0.595 | 0.795 | 0.731 | 0.712 | 0.622 | 0.553
2 | HCC-78 | 0.522 | 0.533 | 0.412 | 0.4 | 0.463 | 0.607 | 0.683 | 0.599 | 0.528 | 0.493 | 0.31 | 0.334 | 0.241 | 0.227 | 0.181 | 0.669 | 0.697 | 0.429 | 0.317 | 0.265
3 | LOU-NH91 | 0.476 | 0.449 | 0.428 | 0.35 | 0.364 | 0.715 | 0.667 | 0.576 | 0.421 | 0.369 | 0.74 | 0.767 | 0.701 | 0.632 | 0.438 | 0.783 | 0.876 | 0.778 | 0.766 | 0.54
4 | NCI-H322M | 0.472 | 0.562 | 0.484 | 0.428 | 0.491 | 0.529 | 0.523 | 0.564 | 0.436 | 0.416 | 0.775 | 0.889 | 0.905 | 0.871 | 0.533 | 0.71 | 0.696 | 0.584 | 0.623 | 0.563
5 | HCC-827 | 0.46 |  | 0.611 | 0.243 | 0.18 | 0.195 |  | 0.199 | 0.148 | 0.167 | 0.879 | 0.941 | 0.662 | 0.394 | 0.228 | 0.294 | 0.328 | 0.315 | 0.205 | 0.182
6 | NCI-H1975 | 0.377 | 0.398 | 0.397 | 0.226 | 0.178 | 0.609 | 0.649 | 0.555 | 0.259 | 0.291 | 0.98 | 1.06 | 1.05 | 0.668 | 0.249 | 0.371 | 0.757 | 0.4 | 0.249 | 0.212
7 | NCI-H1651 | 0.488 | 0.454 | 0.464 | 0.288 | 0.252 | 0.484 | 0.46 | 0.323 | 0.266 | 0.219 | 0.815 | 0.827 | 0.629 | 0.301 | 0.202 | 0.612 | 0.688 | 0.442 | 0.241 | 0.128
